One assay has as its target T1, CD33 S131A (Homo sapiens, UniProt P20138, S131A).
T1 construct: human CD33 ORF (NM_001772.3), lacking its signal peptide; expressed in transfected cells; host or cells: HEK293T, transient, pT8-SNAP vector
Description: SNAP-tag homogeneous time-resolved fluorescence binding assay, CD33 S131A. Particulars: S131 mutated to alanine, in words. On the procedure:
(§1) We then used our structural data to design mutations of key residues interacting with P22 to assess which interactions were the most important for binding affinity. The residues were mutated into alanine, and the effect of these mutations on P22 binding affinity was assessed using a SNAP-tag homogeneous time-resolved fluorescence binding assay (see Transparent Methods and Figures 3E–3G). The R119A mutation, which destroys the salt bridge between P22 and CD33, was one of the most detrimental to binding (>30-fold loss) (Figure 2C and Table S4). […]
(§2) HEK293T cells were cultured in DMEM (ThermoFisher Scientific # 11965092) containing 10% FBS (Hyclone # SH30070.03) and 1% Penicillin-Streptomycin (ThermoFisher Scientific # 15140122) and transfected using Fugene HD (Promega # E2312) in 10 cm plates. […] The cells were counted, centrifuged and resuspended in PBS at a concentration of 1,000 cells/μL and 10 μL were plated into each well. […] Non-specific binding was assessed by competition with 100 μM of the non-labeled P22, as well as in control (Snap-tagged dopamine D2R receptor)-transfected cells.
(§3) Fluorescence was read with a PHERAstar plate reader using an excitation of 337 nm and emissions of 620 and 665 nm. […]

A further assay deals with T2, CD33 H45A (Homo sapiens, UniProt P20138, H45A).
T2 construct: human CD33 ORF (NM_001772.3), lacking its signal peptide; expressed in transfected cells; host or cells: HEK293T, transient, pT8-SNAP vector
T2 sequence (P20138 18-364 H45A): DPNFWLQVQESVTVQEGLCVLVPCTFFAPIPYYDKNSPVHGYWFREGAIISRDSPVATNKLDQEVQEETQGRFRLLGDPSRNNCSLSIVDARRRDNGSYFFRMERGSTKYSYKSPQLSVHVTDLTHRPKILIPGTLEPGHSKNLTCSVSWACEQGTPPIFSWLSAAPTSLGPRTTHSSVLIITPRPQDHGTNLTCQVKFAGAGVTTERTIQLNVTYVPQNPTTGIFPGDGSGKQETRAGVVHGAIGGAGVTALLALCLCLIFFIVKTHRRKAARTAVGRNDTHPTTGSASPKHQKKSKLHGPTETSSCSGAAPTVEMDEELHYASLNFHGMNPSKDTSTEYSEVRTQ
Description: SNAP-tag homogeneous time-resolved fluorescence binding assay, CD33 H45A. Particulars: H45 mutated to alanine, in words. How it is done:
as §1, §2, §3

The subject of the next assay is human CD33. Further details: method as in Rillahan et al., 2014. Particulars: in words; ref Rillahan et al., 2014; cited from earlier work.
For a further assay, the target named is T3, CD33 F21A (Homo sapiens, UniProt P20138, F21A).
T3 construct: human CD33 ORF (NM_001772.3), lacking its signal peptide; expressed in transfected cells; host or cells: HEK293T, transient, pT8-SNAP vector
T3 sequence (P20138 18-364 F21A): as the sequence (P20138 18-364 H45A) above, with F4A, A28H counted along it
Description: SNAP-tag homogeneous time-resolved fluorescence binding assay, CD33 F21A. Particulars: binding affinity, F21A vs WT. On the procedure: as §1, §2, §3

T1 sequence (P20138 18-364 S131A): as the sequence (P20138 18-364 H45A) above, with A28H, S114A counted along it

In the case of `Cc1cc(C(=O)NC[C@@H](O)[C@@H](O)[C@@H]2O[C@@](OC[C@H]3O[C@@H](O[C@H]4[C@H](O)[C@@H](O)[C@H](OCCN)O[C@@H]4CO)[C@H](O)[C@@H](O)[C@H]3O)(C(=O)O)C[C@H](O)[C@H]2NC(=O)Cn2cc(C3CCCCC3)nn2)cc(C)c1O` [P22, β-D-Glucopyranoside, 2-aminoethyl O-[N-[2-(4-cyclohexyl-1H-1,2,3-triazol-1-yl)acetyl]-9-deoxy-9-[(4-hydroxy-3,5-dimethylbenzoyl)amino]-α-neuraminosyl] (2→6)-O-β-D-galactopyranosyl-(1→4)-], the “impact of mutation on P22 binding affinity” value on CD33 S131A and on CD33 H45A was “little to no significant impact” throughout. In addition, the “specificity for human CD33 over other human Siglecs” value in the assay with human CD33 was “high specificity”. The “Fold-decrease compared to WT” value on CD33 F21A is 6 fold.

The values are drawn from PMC6669322, “Small Molecule Binding to Alzheimer Risk Factor CD33 Promotes Aβ Phagocytosis” (iScience, 2019).
